In data set [1] the test system is Primary T cells. Briefly: Cytotoxicity, percentage of viable cells by flow cytometry. It counts as cell-based. The conditions noted are these: viability. Here is the method:
Primary T cells are cultured and treated with different concentrations of the test compound. Viability is analysed by measuring through flow cytometry based techniques the percentage of viable cells, compared to untreated control=100%).
In Tables 2, 3 and 4, ND means Not Determined.
A general note: A flow cytometer gives signals particle by particle.

Data set [2] concerns laboratory strain of HIV-1. The data set is described as follows: Antiviral activity against HIV (AV), p24 in infected activated primary T cells. It counts as cell-based. The conditions noted are these: read-out: AV50 (Inhibitory concentration 50% for antiviral activity). An outline of the steps: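 Activated primary T cells infected with a laboratory HIV-1 strain were cultured with a range of compound concentrations. Replication was measured as p24, expressed as a percentage of untreated control, with AV = 100 − % p24. AV50 is the concentration giving 50% antiviral activity.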

For data set [3], the system named is Primary T cells. The data set is described as follows: Antiproliferative activity (AP), mitotic index by flow cytometry. In kind it is cell-based. The conditions noted are these: read-out: AP50 (Inhibitory concentration 50% for antiproliferative capacity).
Data set [4] deals with human CDK9/CyclinT kinase complex (Homo sapiens (Human), UniProt P50750). Briefly: In vitro CDK9/CyclinT assay (IMAP fluorescent polarization). It counts as biochemical. The procedure: The activity of the compounds described in the present invention can be determined by measuring the phosphorylation of a fluorescently-labeled peptide by human CDK9/CyclinT kinase complex by fluorescent polarization using a commercially available IMAP Screening Express Assay Kit (Molecular devices).
Test compounds were diluted in 100% DMSO to 5 mM stock concentration, then further dilutions were made in H2O or 100% DMSO to desirable concentrations.
Each reaction consisted of 5 nM enzyme: CDK9/CyclinT (Proqinase cat#0371-0345-1), 400 nM TAMRA-Rbtide (synthetic 15-mer peptide derived from human retinoblastoma tumor suppressor protein labeled with TAMRA dye, Genecust Europe), 12 μM ATP (=Kmapp, Sigma-Aldrich) and kinase buffer: 20 mM MOPS pH 7 (Sigma-Aldrich), 1 mM DTT (Sigma-Aldrich), 10 mM MgCl2 (Sigma-Aldrich), 0.01% Tween 20 (Sigma-Aldrich).
For each reaction, 4 or 6 μl containing TAMRA-Rbtide, ATP and kinase buffer were combined with 2 μl diluted compound in H2O or 0.028 μl compound in 100% DMSO. The kinase reaction was started by the addition of 2 μl diluted enzyme. The reaction was allowed to run for 1 hour at room temperature. The reaction was stopped by adding 15 μl IMAP beads (1:400 beads in progressive (100% buffer A) 1× buffer).

Structures can show the parent of a compound that is named as a salt. Where two headings read alike, the source gives them in different places.

Chain of human CDK9/CyclinT kinase complex (P50750 whole entry): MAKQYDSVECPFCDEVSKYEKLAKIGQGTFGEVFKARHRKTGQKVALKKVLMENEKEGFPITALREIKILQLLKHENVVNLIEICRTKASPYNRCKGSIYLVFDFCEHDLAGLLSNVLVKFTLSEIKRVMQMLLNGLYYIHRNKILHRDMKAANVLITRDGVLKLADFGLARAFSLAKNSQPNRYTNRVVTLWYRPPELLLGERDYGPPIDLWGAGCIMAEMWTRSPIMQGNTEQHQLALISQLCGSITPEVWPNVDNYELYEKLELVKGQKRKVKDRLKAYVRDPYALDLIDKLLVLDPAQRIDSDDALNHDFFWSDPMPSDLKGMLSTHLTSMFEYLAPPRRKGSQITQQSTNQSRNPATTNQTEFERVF
Chain of human CDK9/CyclinT kinase complex (O60563 whole entry partner): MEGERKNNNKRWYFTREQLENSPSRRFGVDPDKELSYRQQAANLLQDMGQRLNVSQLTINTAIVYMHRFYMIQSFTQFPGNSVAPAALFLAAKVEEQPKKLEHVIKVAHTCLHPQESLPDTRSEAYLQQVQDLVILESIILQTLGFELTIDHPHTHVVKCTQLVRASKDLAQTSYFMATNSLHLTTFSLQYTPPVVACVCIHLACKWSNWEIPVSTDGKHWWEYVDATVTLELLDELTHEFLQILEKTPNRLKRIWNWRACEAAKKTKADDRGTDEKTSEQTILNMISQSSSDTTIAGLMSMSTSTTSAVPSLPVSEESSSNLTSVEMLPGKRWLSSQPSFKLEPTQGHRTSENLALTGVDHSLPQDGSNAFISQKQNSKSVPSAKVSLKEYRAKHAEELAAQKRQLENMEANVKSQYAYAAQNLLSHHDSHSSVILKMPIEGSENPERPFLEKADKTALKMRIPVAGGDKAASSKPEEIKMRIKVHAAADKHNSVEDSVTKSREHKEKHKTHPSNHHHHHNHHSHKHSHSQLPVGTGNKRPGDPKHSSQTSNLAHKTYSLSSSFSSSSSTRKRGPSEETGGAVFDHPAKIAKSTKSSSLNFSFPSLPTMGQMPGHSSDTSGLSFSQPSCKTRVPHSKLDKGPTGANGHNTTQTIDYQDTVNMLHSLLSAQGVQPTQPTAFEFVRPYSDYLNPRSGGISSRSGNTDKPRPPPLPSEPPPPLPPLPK

Take `COc1ccc(Nc2cc(-c3ccccc3OC)ncn2)cc1NC(=O)OCC(Cl)(Cl)Cl` [Example 27, 2,2,2-Trichloroethyl 2-methoxy-5-(6-(2-methoxyphenyl)pyrimidin-4-ylamino)phenylcarbamate]: in the data set on Primary T cells [1], the “TD50 (Toxic dose 50%)” value is over 0.5 µM. Further, the IC50 in data set [2] (Human immunodeficiency virus 1, T-cell) is over 0.5 µM; in the data set on Primary T cells [3] (T-cell), over 0.5 µM.
Regarding `CNCc1cc(Nc2cc(-c3ccccc3OC)ncn2)ccc1OC` [Example 37, N-(4-Methoxy-3-((methylamino)methyl)phenyl)-6-(2-methoxyphenyl)pyrimidin-4-amine], in the data set with Primary T cells [1], the “TD50 (Toxic dose 50%)” value was determined as 2 µM. The IC50 in data set [2] (HIV-1 infected activated primary T cells, p24) is over 1.5 µM; with Primary T cells [3] (primary T cells, mitotic index), 2 µM.
For `COc1ccccc1-c1cc(Nc2ccc(N(C)C)c(F)c2)ncn1` [Example 106, 2-Fluoro-N^4-[6-(2-methoxy-phenyl)-pyrimidin-4-yl]-N^1,N^1-dimethyl-benzene-1,4-diamine Hydrochloride], the IC50 in data set [4] is under 1 µM.
For `COc1ccccc1-c1cc(Nc2ccc(Cl)c(O)c2)ncn1` [Example 107, 2-Chloro-5-[6-(2-methoxy-phenyl)-pyrimidin-4-ylamino]-phenol Hydrochloride], the IC50 in data set [4] is under 1 µM.

For the origin of these results see patent US10294218B2 (VIROSTATICS SRL, priority 2012, dated 2019).
